{"source": "patent US20230145835A1", "about": "“Modulators of Alpha-4-beta-7 Integrin and MAdCAM” (48HD Biopharma Inc., priority 2021, published 2023)", "note": "Where “and” joins values, the source holds several entries; their conditions need not be identical. Identical values can stand only once. Numbered stars: 1 amine (or outer) side, 2 acyl side, 3 side chain; on linkers, the order of the positions; unused ones are H or OH. Bridge positions count the residues as written; N and C are the ends. Square brackets hold non-standard residues; d marks the D form. Peptide text beside a SMILES is read from it. X3 = O=C(/C=N/OCCCCCCOc1cc(C[*:2])cc(C[*:3])c1)[*:1]; X1 = O=C(C=NOCCCCCCOc1cc(C[*:2])cc(C[*:3])c1)[*:1]; X5 = O=C(CCCCCCOc1cc(C[*:2])cc(C[*:3])c1)[*:1]; tBuAla = CC(C)(C)C[C@H](N)C(=O)O; hSer = N[C@@H](CCO)C(=O)O", "data": [{"target": "T1, rh-integrin α4β7/LPAM-1 (Homo sapiens, UniProt P13612+P26010)", "T1 sequence (P13612 34-977 limits assumed)": "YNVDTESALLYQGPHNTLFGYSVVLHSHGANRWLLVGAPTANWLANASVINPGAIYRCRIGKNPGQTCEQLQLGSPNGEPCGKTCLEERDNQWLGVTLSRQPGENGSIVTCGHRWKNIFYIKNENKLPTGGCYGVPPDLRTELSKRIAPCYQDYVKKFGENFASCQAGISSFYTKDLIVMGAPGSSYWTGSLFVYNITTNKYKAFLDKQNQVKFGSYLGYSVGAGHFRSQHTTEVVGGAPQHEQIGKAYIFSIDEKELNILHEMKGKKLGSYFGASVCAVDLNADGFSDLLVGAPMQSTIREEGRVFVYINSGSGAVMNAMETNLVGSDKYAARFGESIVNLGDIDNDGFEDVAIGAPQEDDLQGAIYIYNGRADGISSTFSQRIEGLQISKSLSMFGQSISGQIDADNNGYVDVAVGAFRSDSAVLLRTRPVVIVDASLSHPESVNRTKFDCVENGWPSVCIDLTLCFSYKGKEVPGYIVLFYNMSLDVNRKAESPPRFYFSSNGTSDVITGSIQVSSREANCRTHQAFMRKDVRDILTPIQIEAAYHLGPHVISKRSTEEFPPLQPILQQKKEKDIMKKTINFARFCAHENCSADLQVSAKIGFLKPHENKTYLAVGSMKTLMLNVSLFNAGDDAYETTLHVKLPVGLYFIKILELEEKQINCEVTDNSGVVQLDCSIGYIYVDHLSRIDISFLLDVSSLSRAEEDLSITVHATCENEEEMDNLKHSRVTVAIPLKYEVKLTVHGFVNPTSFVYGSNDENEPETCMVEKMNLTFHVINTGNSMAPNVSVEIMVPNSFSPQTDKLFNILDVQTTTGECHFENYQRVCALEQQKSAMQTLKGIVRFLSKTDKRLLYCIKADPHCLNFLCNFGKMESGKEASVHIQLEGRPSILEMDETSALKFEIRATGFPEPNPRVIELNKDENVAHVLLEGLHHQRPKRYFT", "T1 sequence (P26010 20-723 limits assumed)": "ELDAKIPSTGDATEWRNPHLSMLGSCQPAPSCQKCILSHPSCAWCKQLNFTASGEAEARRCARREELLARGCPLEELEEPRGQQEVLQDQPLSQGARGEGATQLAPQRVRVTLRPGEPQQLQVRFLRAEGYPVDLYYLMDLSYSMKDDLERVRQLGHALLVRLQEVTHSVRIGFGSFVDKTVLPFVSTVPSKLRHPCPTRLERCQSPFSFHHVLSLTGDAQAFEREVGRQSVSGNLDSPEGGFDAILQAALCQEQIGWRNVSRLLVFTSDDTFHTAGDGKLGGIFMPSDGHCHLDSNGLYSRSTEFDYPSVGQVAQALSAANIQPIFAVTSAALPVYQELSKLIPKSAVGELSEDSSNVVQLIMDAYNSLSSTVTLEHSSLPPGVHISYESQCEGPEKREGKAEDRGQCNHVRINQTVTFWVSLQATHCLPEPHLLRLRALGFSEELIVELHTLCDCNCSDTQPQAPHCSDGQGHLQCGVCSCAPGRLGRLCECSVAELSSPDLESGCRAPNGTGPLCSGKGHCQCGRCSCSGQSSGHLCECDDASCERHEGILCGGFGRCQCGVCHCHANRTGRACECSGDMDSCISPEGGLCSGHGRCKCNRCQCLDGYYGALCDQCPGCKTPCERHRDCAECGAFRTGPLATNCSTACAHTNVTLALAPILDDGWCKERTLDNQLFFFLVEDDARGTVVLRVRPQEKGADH", "assay": "α4β7-MadCAM Competition ELISA (Example 4)", "type": "binding", "conditions": "Table 3 Representative compounds; inhibition of MAdCAM binding to coated α4β7; read-out: IC50", "procedure": "(§1) After washing with wash buffer, 200 μL assay buffer was added to each well and incubated for one hour at 28° C. After another wash with wash buffer, 100 μL of a MAdCAM and peptide mixture in assay buffer was added to each well and incubated for one hour at 28° C., followed by washing with wash buffer.", "values": [{"smiles": "CSCC[C@@H]1NC(=O)/C=N/OCCCCCCOc2cc3cc(c2)CSC[C@H](NC1=O)C(=O)N[C@@H](Cc1ccc(O)cc1)C(=O)N1CCC[C@H]1C(=O)N[C@@H](CC(=O)O)C(=O)N[C@@H]([C@@H](C)O)C(=O)N[C@@H](Cc1ccc(O)cc1)C(=O)N[C@@H](Cc1cnc[nH]1)C(=O)N[C@H](C(N)=O)CSC3", "note": "[compound 101, TSL6- SMCYPDTYHC] (MCYPDTYHC-NH2; linker N-2-9 via X3)", "IC50": "167 µM"}, {"smiles": "COCC[C@@H]1NC(=O)[C@@H]2CCCN2C(=O)[C@@H]2CSCc3cc(cc(c3)OCCCCCCC(=O)NCC(=O)N[C@@H](CCCNC(=N)N)C(=O)N2)CSC[C@@H](C(N)=O)NC(=O)[C@H](CCC(=O)O)NC(=O)[C@H](CCC(N)=O)NC(=O)[C@@H]2CCCN2C(=O)[C@H](CC(C)(C)C)NC(=O)[C@H](CC(=O)O)NC1=O", "note": "[compound 80, TSLC7-GQCP{Hse(OMe)} D{tBuAla}PQEC] (GRCP[hSer](Me)D[tBuAla]PQEC-NH2; linker N-3-11 via X5)", "IC50": "55.9 µM"}, {"smiles": "CC(C)C[C@@H]1NC(=O)[C@@H]2CCCN2C(=O)[C@@H]2CSCc3cc(cc(c3)OCCCCCCO/N=C/C(=O)N[C@@H](CCCCN)C(=O)N2)CSC[C@@H](C(N)=O)NC(=O)[C@H](CCC(=O)O)NC(=O)[C@H](Cc2ccc(O)cc2)NC(=O)[C@@H]2CCCN2C(=O)[C@H]([C@@H](C)O)NC(=O)[C@H](CC(=O)O)NC1=O", "note": "[compound 22, TSL6- SKCPLDTPYEC] (KCPLDTPYEC-NH2; linker N-2-10 via X3)", "IC50": "0.495 µM and 0.94 µM"}, {"smiles": "C[C@@H](O)[C@@H]1NC(=O)[C@H](CC(=O)O)NC(=O)[C@@H]2CCCN2C(=O)[C@H](Cc2ccc(O)cc2)NC(=O)[C@@H]2CSCc3cc(cc(c3)OCCCCCCO/N=C/C(=O)N[C@@H](CC(=O)O)C(=O)N2)CSC[C@@H](C(N)=O)NC(=O)[C@H](Cc2cnc[nH]2)NC(=O)[C@H](Cc2ccc(O)cc2)NC1=O", "note": "[compound 88, TSL6- SDCYPDTYHC] (DCYPDTYHC-NH2; linker N-2-9 via X3)", "IC50": "72.5 µM"}, {"smiles": "CSCC[C@@H]1NC(=O)[C@H]([C@@H](C)O)NC(=O)[C@H](C)NC(=O)CNC(=O)[C@@H]2CSCc3cc(cc(c3)OCCCCCCO/N=C/C(=O)N[C@@H](Cc3ccccc3)C(=O)N2)CSC[C@@H](C(N)=O)NC(=O)[C@H](CCCCN)NC(=O)[C@H](CCCCN)NC1=O", "note": "[compound 100, TSL6- SFCGATMKKC] (FCGATMKKC-NH2; linker N-2-9 via X3)", "IC50": "162 µM"}, {"smiles": "CC(C)C[C@@H]1NC(=O)[C@@H]2CCCN2C(=O)[C@@H]2CSCc3cc(cc(c3)OCCCCCCO/N=C/C(=O)N[C@@H](CCCNC(=N)N)C(=O)N2)CSC[C@@H](C(N)=O)NC(=O)[C@H](CCC(=O)O)NC(=O)[C@H](Cc2ccc(O)cc2)NC(=O)[C@H](C)NC(=O)[C@H]([C@@H](C)O)NC(=O)[C@H](CC(=O)O)NC1=O", "note": "[compound 38, TSL6- SKCPLDTAYEC] (RCPLDTAYEC-NH2; linker N-2-10 via X3)", "IC50": "1.04 µM"}, {"smiles": "CCCC[C@@H]1NC(=O)[C@@H]2CCCN2C(=O)[C@@H]2CSCc3cc(cc(c3)OCCCCCCC(=O)NCC(=O)N[C@@H](CCCCN)C(=O)N2)CSC[C@@H](C(N)=O)NC(=O)[C@H](CCCCN)NC(=O)[C@H](C(C)C)NC(=O)[C@H](Cc2c[nH]c3ccccc23)NC(=O)[C@H]([C@@H](C)CC)NC(=O)[C@H](CC(=O)O)NC1=O", "note": "(stereo in doubt) [compound 21, TSLC7- GKCP{Nle} DIWVKC]", "IC50": "0.45 µM"}, {"smiles": "CC(C)C[C@@H]1NC(=O)[C@@H]2CCCN2C(=O)[C@@H]2CSCc3cc(cc(c3)OCCCCCCO/N=C/C(=O)N[C@@H](CCCCN)C(=O)N2)CSC[C@@H](C(N)=O)NC(=O)[C@H](CCC(=O)O)NC(=O)[C@H](Cc2ccc(O)cc2)NC(=O)[C@@H]2CCCN2C(=O)[C@H](C)NC(=O)[C@H](CC(=O)O)NC1=O", "note": "[compound 42, TSL6- SKCPLDAPYEC] (KCPLDAPYEC-NH2; linker N-2-10 via X3)", "IC50": "1.4 µM"}, {"smiles": "CC(C)[C@@H]1NC(=O)[C@H](CC(=O)O)NC(=O)[C@H](CC(C)(C)C)NC(=O)[C@@H]2CCCN2C(=O)[C@@H]2CSCc3cc(cc(c3)OCCCCCCO/N=C/C(=O)N[C@@H](CCCNC(=N)N)C(=O)N2)CSC[C@@H](C(N)=O)NC(=O)[C@H](CCC(=O)O)NC(=O)[C@H](CCC(N)=O)NC(=O)[C@@H]2CCCN2C1=O", "note": "[compound 30, TSL6- SRCP{tBuAla} DVPQEC] (RCP[tBuAla]DVPQEC-NH2; linker N-2-10 via X3)", "IC50": "0.69 µM"}, {"smiles": "NC(=O)[C@@H]1CSCc2cc3cc(c2)OCCCCCCO/N=C/C(=O)N[C@@H](CC(=O)O)C(=O)N[C@@H](CSC3)C(=O)N[C@@H](Cc2ccc(O)cc2)C(=O)N2CCC[C@H]2C(=O)N[C@@H](CC(=O)O)C(=O)N[C@@H](Cc2ccccc2)C(=O)N[C@@H](Cc2ccc(O)cc2)C(=O)N[C@@H](Cc2cnc[nH]2)C(=O)N1", "note": "[compound 96, TSL6- SDCYPDFYHC] (DCYPDFYHC-NH2; linker N-2-9 via X3)", "IC50": "124 µM"}, {"smiles": "CC[C@H](C)[C@@H]1NC(=O)[C@H](CC(=O)O)NC(=O)[C@H](CC(C)C)NC(=O)[C@@H]2CCCN2C(=O)[C@@H]2CSCc3cc(cc(c3)OCCCCCCO/N=C/C(=O)N[C@@H](CCCCN)C(=O)N2)CSC[C@@H](C(N)=O)NC(=O)[C@H](CCC(=O)O)NC(=O)[C@H](Cc2ccc(O)cc2)NC(=O)[C@@H]2CCCN2C1=O", "note": "[compound 11] (KCPLDIPYEC-NH2; linker N-2-10 via X3)", "IC50": "0.198 µM"}, {"smiles": "CC[C@H](C)[C@@H]1NC(=O)[C@H](CCCNC(=N)N)NC(=O)CNC(=O)[C@H](Cc2ccc(O)cc2)NC(=O)[C@H](Cc2c[nH]c3ccccc23)NC(=O)[C@H](Cc2c[nH]cn2)NC(=O)[C@@H]2CSCc3cc(cc(c3)OCCCCCCO/N=C/C(=O)N[C@@H](CC(N)=O)C(=O)N2)CSC[C@@H](C(N)=O)NC1=O", "note": "[compound 83, TSL6- SNCHWYGRIC] (NCHWYGRIC-NH2; linker N-2-9 via X3)", "IC50": "63.8 µM"}, {"smiles": "C[C@@H](O)[C@@H]1NC(=O)[C@H](CC(=O)O)NC(=O)[C@@H]2CCCN2C(=O)[C@H](Cc2ccccc2)NC(=O)[C@@H]2CSCc3cc(cc(c3)OCCCCCCO/N=C/C(=O)N[C@@H](CC(=O)O)C(=O)N2)CSC[C@@H](C(N)=O)NC(=O)[C@H](Cc2cnc[nH]2)NC(=O)[C@H](Cc2ccc(O)cc2)NC1=O", "note": "[compound 84, TSL6- SDCFPDTYHC] (DCFPDTYHC-NH2; linker N-2-9 via X3)", "IC50": "65.7 µM"}]}, {"target": "T1, rh-integrin α4β7/LPAM-1", "assay": "α4β7-MadCAM Competition ELISA (Example 4)", "type": "binding", "conditions": "competition ELISA, 4 μg/mL α4β7 coated, MAdCAM and peptide mixture, 28° C.; read-out: IC50", "procedure": "as §1", "units": {"IC50": "µM"}, "values": [{"smiles": "CSCC[C@@H]1NC(=O)[C@H]([C@@H](C)O)NC(=O)[C@H](C)NC(=O)CNC(=O)[C@@H]2CSCc3cc(cc(c3)OCCCCCCON=CC(=O)N[C@@H](Cc3ccccc3)C(=O)N2)CSC[C@@H](C(=O)O)NC(=O)[C@H](CCCCN)NC(=O)[C@H](CCCCN)NC1=O", "note": "[SEQ ID NO: 79] (FCGATMKKC-OH; linker N-2-9 via X1)", "IC50": 162}, {"smiles": "CC[C@H](C)[C@@H]1NC(=O)C=NOCCCCCCOc2cc3cc(c2)CSC[C@H](NC1=O)C(=O)N[C@@H](CCCNC(=N)N)C(=O)N[C@@H]([C@@H](C)O)C(=O)N[C@@H](CC(=O)O)C(=O)N[C@@H](C(C)C)C(=O)N1CCC[C@H]1C(=O)N[C@@H]([C@@H](C)CC)C(=O)N[C@@H](CC(=O)O)C(=O)N[C@H](C(=O)O)CSC3", "note": "[SEQ ID NO: 98] (ICRTDVPIDC-OH; linker N-2-10 via X1)", "IC50": 14.4}, {"smiles": "CC(C)C[C@@H]1NC(=O)[C@@H]2CCCN2C(=O)[C@@H]2CSCc3cc(cc(c3)OCCCCCCON=CC(=O)N[C@@H](CCCCN)C(=O)N2)CSC[C@@H](C(=O)O)NC(=O)[C@H](CO)NC(=O)[C@@H]2CCCN2C(=O)[C@H](C)NC(=O)[C@H](CC(=O)O)NC1=O", "note": "[SEQ ID NO: 57] (KCPLDAPSC-OH; linker N-2-9 via X1)", "IC50": 1.74}]}]}
